Several values for one entry are separate records, joined by “and”; a condition that tells them apart may be missing. Equal entries are not always repeated. Where two headings read alike, the source gives them in different places. Each block holds one compound with its values, some of them ahead of it.
What was measured:
D2R = D2R (Homo sapiens, UniProt P14416); type: binding
D3R = D3R (Homo sapiens, UniProt P35462); test: Radioligand binding to D3R with and without Na+
[1] = system: Tyr(7.43) to Cys mutant receptor; conditions: mutant vs wild type; cited from earlier work

Sequence of D2R (P14416 whole entry): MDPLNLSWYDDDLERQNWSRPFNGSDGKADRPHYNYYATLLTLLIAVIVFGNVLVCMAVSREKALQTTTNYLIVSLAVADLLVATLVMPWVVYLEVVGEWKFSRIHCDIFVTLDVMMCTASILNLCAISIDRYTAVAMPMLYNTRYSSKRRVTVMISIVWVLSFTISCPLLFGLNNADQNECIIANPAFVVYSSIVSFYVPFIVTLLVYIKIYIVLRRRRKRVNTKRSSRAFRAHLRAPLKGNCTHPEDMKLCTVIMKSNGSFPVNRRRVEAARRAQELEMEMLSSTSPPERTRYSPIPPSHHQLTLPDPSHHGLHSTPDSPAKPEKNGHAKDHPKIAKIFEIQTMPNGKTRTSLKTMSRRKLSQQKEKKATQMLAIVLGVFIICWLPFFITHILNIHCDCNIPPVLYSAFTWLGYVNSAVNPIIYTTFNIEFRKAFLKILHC
Sequence of D3R (P35462 whole entry): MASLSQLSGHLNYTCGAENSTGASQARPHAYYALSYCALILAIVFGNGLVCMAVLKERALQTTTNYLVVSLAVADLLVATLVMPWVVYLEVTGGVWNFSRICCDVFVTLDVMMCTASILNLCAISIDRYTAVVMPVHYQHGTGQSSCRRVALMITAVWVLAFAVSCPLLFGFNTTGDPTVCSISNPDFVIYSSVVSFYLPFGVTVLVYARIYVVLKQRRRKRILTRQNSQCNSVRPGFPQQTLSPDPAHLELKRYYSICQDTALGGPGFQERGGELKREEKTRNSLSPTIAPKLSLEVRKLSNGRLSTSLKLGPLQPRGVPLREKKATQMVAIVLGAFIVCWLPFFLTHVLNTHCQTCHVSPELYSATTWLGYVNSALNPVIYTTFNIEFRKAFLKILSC

SMILES: O=C(CCCN1CCC2(CC1)C(=O)NCN2c1ccccc1)c1ccc(F)cc1 [spiperone]
effect of presence or absence of Na+ on affinity for the D2R (D2R): does not affect

SMILES: CCN1CCCC1CNC(=O)c1cc(S(N)(=O)=O)ccc1OC (stereo not drawn) [sulpiride]
effect of Na+ on binding to the D3R (D3R; result in words, Fig. S2): increased
decrease of binding by mutation of Tyr(7.43) to Cys [1]: 185 fold
increase of affinity for the D2R in the presence of Na+ (D2R; +Na+ vs -Na+): ~ 23 fold

decrease of affinity for the D2R in the presence of Na+ (D2R; +Na+ vs -Na+): ~ 7 fold
SMILES: CN(C)CCOC1=Cc2ccccc2Sc2ccc(Cl)cc21 [zotepine]

SMILES: CN1CN(c2ccccc2)C2(CCN(CCCC(=O)c3ccc(F)cc3)CC2)C1=O [methylspiperone]
decrease of binding by mutation of Tyr(7.43) to Cys [1]: 3 fold

effect of Na+ on binding to the D3R (D3R): increased
increase of affinity for the D2R in the presence of Na+ (D2R): ~ 3 fold
Ki (D2R; Ki): 0.67 nM and 0.27 nM
SMILES: CCc1cc(Cl)c(OC)c(C(=O)NC[C@@H]2CCCN2CC)c1O [eticlopride]
